Measured values from patent US4012367A, “Anti-ulcer polypeptides containing L-aspartic acid and intermediates thereto” (G. D. Searle & Co., priority 1976, dated 1977).
Non-standard residues stand in square brackets, D forms with d. Residues, ends and D or L forms follow the SMILES beside them. *: point of attachment. Boc = CC(C)(C)OC(=O)*

Test system: gastric acid secretion induced by the administration of pentagastrin
Experiment: Inhibition of pentagastrin-induced gastric acid secretion in anesthetized rats with perfused stomach (modified Ghosh and Schild)
Type: in vivo
Parameters: key to rating in assay: antagonism of the secretory response induced by pentagastrin: A test compound is considered active if the standard pentagastrin response is blocked to the extent of at least 50%
Settings: urethane-anesthetized male Charles River rats, gastric effluent pH, pentagastrin 0.1 mcg./rat intravenously
Source text: The compounds of the present invention are useful in consequence of their valuable pharmacological properties. They are, for example, gastric anti-secretory agents as evidenced by their ability to inhibit the gastric acid secretion induced by the administration of pentagastrin.
The assay utilized for detection of that property is a modification of the procedure described by Ghosh and Schild, J. Physiol., Lond., 128:35-36P (1955); Br. J. Pharmacol. Chemother., […]:54-61 (1958); and by Smith et al., Br. J. Pharmacol., 38:206-213 (1970). The details of that assay are as follows:
A group of male Charles River rats weighing 300-400 g. are anesthetized by the intramuscular administration of urethane at a dose of 1.5 g./kg. The trachea is exposed and cannulated and a polyethylene tube is passed through the esophagus into the cardiac junction of the stomach and is ligated in place in the neck, excluding the vagal nerves. The external jugular vein is exposed and cannulated to facilitate intravenous administration. The femoral artery is exposed and cannulated for recording of blood pressure. The abdomen is opened. […] The test compounds are evaluated for their ability to antagonize the secretory response induced by the administration of pentagastrin. […]

CSCC[C@H](NC(=O)OC(C)(C)C)C(=O)N[C@@H](CC(=O)O)C(=O)N[C@H](C)C(N)=O [N-t-butoxycarbonyl-L-methionyl-L-aspartyl-D-alanine amide] (Boc-Met-Asp-[dA]-NH2)
inhibition of gastric acid secretion induced by pentagastrin (result in words): particularly active

CSCC[C@H](NC(=O)[C@H](Cc1c[nH]c2ccccc12)NC(=O)OC(C)(C)C)C(=O)N[C@@H](CC(=O)O)C(=O)N[C@H](C)C(N)=O [N-t-butoxycarbonyl-L-tryptophanyl-L-methionyl-L-aspartyl-D-alanine amide] (Boc-WMD[dA]-NH2)
rating in assay: antagonism of the secretory response induced by pentagastrin: active
